Format in all cases: functional
Common to all, as to set-up: scale not given: the % may be the effect or the level left

Assay [1] relates to Human alphaherpesvirus 1. As to the kind of experiment: Antiviral activity against HSV1 in Vero cells assessed as plaque infectivity reduction at 10 ug/ml.
For assay [2], the system named is Hepatovirus A. The assay is described as follows: Antiviral activity against HAV in Vero cells assessed as plaque infectivity reduction at 10 ug/ml.
Assay [3] deals with Hepatovirus A. As to the kind of experiment: Antiviral activity against HAV in Vero cells assessed as plaque infectivity reduction at 20 ug/ml.
Assay [4] concerns Human alphaherpesvirus 1. As to the kind of experiment: Antiviral activity against HSV1 in Vero cells assessed as plaque infectivity reduction at 20 ug/ml.

Drawing on ChEMBL document CHEMBL1147850, “Conversion of some 2(3H)-furanones bearing a pyrazolyl group into other heterocyclic systems with a study of their antiviral activity” (2007), this text covers Activity for 10 compounds.

Molecules are shown by their SMILES.

For `NC(=O)NNC(=O)/C(=C/c1cn(-c2ccccc2)nc1-c1ccccc1)CC(=O)c1ccc(Cl)cc1`, the Activity turned out to be 42.8% in the assay on Human alphaherpesvirus 1 [1], 0% in the assay with Hepatovirus A [2], 20% with Hepatovirus A [3] and 52% in the assay with Human alphaherpesvirus 1 [4].
The corresponding values for `NNC(=O)/C(=C/c1cn(-c2ccccc2)nc1-c1ccccc1)CC(=O)c1ccc(Cl)cc1` are 26%, 20%, 30% and 42.8%.
For the compound `O=C(C/C(=C\c1cn(-c2ccccc2)nc1-c1ccccc1)c1n[nH]c(=S)[nH]1)c1ccc(Cl)cc1`, the Activity turned out to be 0% in the assay with Human alphaherpesvirus 1 [1], 40% in the assay on Hepatovirus A [2], 50% with Hepatovirus A [3] and 38% in the assay with Human alphaherpesvirus 1 [4].
Regarding `O=C(C/C(=C\c1cn(-c2ccccc2)nc1-c1ccccc1)c1n[nH]c(=O)[nH]1)c1ccc(Cl)cc1`, the Activity in the assay with Human alphaherpesvirus 1 [1] amounted to 0%; in the assay on Hepatovirus A [2], 0%; in the assay with Hepatovirus A [3], 10%; with Human alphaherpesvirus 1 [4], 14%.
Consider `O=C(NNC(=O)c1ccccc1)/C(=C/c1cn(-c2ccccc2)nc1-c1ccccc1)CC(=O)c1ccc(Cl)cc1`, for which the Activity came to 10% in the assay on Human alphaherpesvirus 1 [1], 30% in the assay on Hepatovirus A [2], 60% in the assay on Hepatovirus A [3] and 38% with Human alphaherpesvirus 1 [4].
Consider `O=C(NCc1ccccc1)/C(=C/c1cn(-c2ccccc2)nc1-c1ccccc1)CC(=O)c1ccc(Cl)cc1`, for which the Activity is on record as 4% in the assay on Human alphaherpesvirus 1 [1], 40% in the assay on Hepatovirus A [2], 60% with Hepatovirus A [3] and 23.8% in the assay on Human alphaherpesvirus 1 [4].
On the same counts, the results for `O=C1OC(c2ccc(Cl)cc2)=C/C1=C\c1cn(-c2ccccc2)nc1-c1ccccc1` are 0%, 40%, 60% and 0%.
For the compound `COc1ccc(-c2cc(Cc3cn(-c4ccccc4)nc3-c3ccccc3)c(=O)[nH]n2)cc1`, the Activity in the assay on Human alphaherpesvirus 1 [1] was 21%; with Hepatovirus A [2], 20%; in the assay with Hepatovirus A [3], 50%; with Human alphaherpesvirus 1 [4] it was 47%.
On to `COc1ccc(C2=C/C(=C\c3cn(-c4ccccc4)nc3-c3ccccc3)C(=O)N2Cc2ccccc2)cc1`, for which the Activity came out at 23% with Human alphaherpesvirus 1 [1], 0% in the assay on Hepatovirus A [2], 0% in the assay on Hepatovirus A [3] and 45% with Human alphaherpesvirus 1 [4].
As for `O=C(C/C(=C\c1cn(-c2ccccc2)nc1-c1ccccc1)c1n[nH]c(=S)o1)c1ccc(Cl)cc1`, the Activity with Human alphaherpesvirus 1 [1] is reported as 14%; in the assay with Hepatovirus A [2] it was 0%; in the assay with Hepatovirus A [3], 0%; with Human alphaherpesvirus 1 [4] it was 45%.
